Assay results taken from US20050090433A1 (priority 2002, published 2005).
Values after ≈ are worked out from the molar mass of the structure shown.

What was measured:
Gram-positive pathogen = assay: SSTI trial: microbiologic response, all Gram-positive organisms; assay type: in vivo, human; details: single dose; EOT and FU, microbiologically-evaluable and MITT populations
Protocol: This randomized, controlled study evaluated the safety and efficacy of two dose regimens of dalbavancin.
There were 62 patients randomized into the study, all received at least one dose of study medication. Four study populations were evaluated for safety and efficacy and were defined as follows: The intent-to-treat (I) population included all patients who received at least one dose of study drug (all randomized study subjects).
Microbiological outcome, a secondary efficacy variable, was assessed in the subpopulation of patients who had microbiologically documented SSTI (i.e., at least one identified baseline pathogen). A microbiologic response was assessed for each Gram-positive pathogen identified at baseline (i.e., eradication, presumed eradication, persistence, presumed persistence). For patients for whom follow-up cultures were not performed, the microbiologic responses for baseline pathogens were presumed on the basis of the clinical response. Microbiologic response by patient at the EOT and FU visits was graded as success (i.e., all Gram-positive organisms eradicated or presumed eradicated) or failure (i.e., at least one Gram-positive organism persisted or presumed to have persisted, multiple pathogens with partial eradication). At both the EOT and FU visits, colonization and superinfection were assessed. […]

bacteria = assay: Minimum bactericidal concentration; assay type: cell-based; details: 24 h, kill at least 99% of bacteria over 24 hour in vitro; in plasma
Text: The amount of dalbavancin administered may be any of the dosages disclosed herein.

[1] = pH 7.4

SMILES: CN[C@H]1C(=O)N[C@@H]2Cc3ccc(cc3)Oc3cc4cc(c3O[C@@H]3O[C@H](C(=O)O)[C@@H](O)[C@H](O)[C@H]3NC(=O)CCCCCCCCC(C)C)Oc3ccc(cc3Cl)[C@@H](O)[C@@H]3NC(=O)[C@H](NC(=O)[C@@H]4NC(=O)[C@@H](NC2=O)c2cc(cc(O)c2Cl)Oc2cc1ccc2O)c1ccc(O)c(c1)-c1c(O[C@H]2O[C@H](CO)[C@@H](O)[C@H](O)[C@@H]2O)cc(O)cc1[C@@H](C(=O)NCCCN(C)C)NC3=O [Dalbavancin]
- Microbiologic success rates at both visits (summary) (Gram-positive pathogen): < 40%
- MBC (bacteria): 4 to 10 µg/mL (≈ 2.2 to 5.5 µM)
- Solubility in the presence of HSA [1]: significantly increased
